Experimental data as given in patent US20110178094A1, “Oral Formulation” (H. LUNDBECK A/S, priority 2008, published 2011).

Assays:
[1] = system: condition avoidance response (CAR) model; test: Condition avoidance response (CAR) model; type: in vivo; conditions: rats; at very low levels of D2 receptor occupancy
Text: The compound of formula I is a putative antipsychotic compound with affinity for both dopamine D1 and D2 receptors.

[2] = system: preclinical models of cognitive dysfunctions; test: Preclinical models of cognitive dysfunctions; type: in vivo
Text: It is believed that the 5-HT6 receptor affinity of the compound of formula I is involved in the precognitive effects of the compound. Furthermore, it is believed that such pro-cognitive effect of the compound of formula I will be evident at a low level of D2 receptor occupancy, which is beneficial in terms of the side-effect profile.

[3] = Study of the compatibility of the excipients and the compound; type: physicochemical; conditions: components used in the tablet formulation
Text: Based on this, a traditional wet granulation, tabletting and film-coating process was developed using standard methods and excipients.

dopamine D1 receptors = dopamine D1 receptors (Homo sapiens, UniProt P21728); conditions: reported in WO 2005/016900; cited from earlier work
dopamine D1 receptors, sequence (P21728 whole entry): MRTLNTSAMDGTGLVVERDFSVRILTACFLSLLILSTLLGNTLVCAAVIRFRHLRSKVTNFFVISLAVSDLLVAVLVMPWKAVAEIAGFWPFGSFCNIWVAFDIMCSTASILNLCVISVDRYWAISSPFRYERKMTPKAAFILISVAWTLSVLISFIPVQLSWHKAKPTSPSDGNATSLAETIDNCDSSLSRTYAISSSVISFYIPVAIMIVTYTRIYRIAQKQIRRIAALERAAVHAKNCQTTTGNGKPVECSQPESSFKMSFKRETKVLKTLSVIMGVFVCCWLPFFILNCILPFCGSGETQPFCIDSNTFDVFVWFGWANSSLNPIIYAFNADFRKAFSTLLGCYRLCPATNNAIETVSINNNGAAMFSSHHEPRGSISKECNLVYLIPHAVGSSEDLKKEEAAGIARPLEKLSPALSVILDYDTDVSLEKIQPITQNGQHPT

dopamine D2 receptors = dopamine D2 receptors (Homo sapiens, UniProt P14416); conditions: reported in WO 2005/016900; cited from earlier work
dopamine D2 receptors, sequence (P14416 whole entry): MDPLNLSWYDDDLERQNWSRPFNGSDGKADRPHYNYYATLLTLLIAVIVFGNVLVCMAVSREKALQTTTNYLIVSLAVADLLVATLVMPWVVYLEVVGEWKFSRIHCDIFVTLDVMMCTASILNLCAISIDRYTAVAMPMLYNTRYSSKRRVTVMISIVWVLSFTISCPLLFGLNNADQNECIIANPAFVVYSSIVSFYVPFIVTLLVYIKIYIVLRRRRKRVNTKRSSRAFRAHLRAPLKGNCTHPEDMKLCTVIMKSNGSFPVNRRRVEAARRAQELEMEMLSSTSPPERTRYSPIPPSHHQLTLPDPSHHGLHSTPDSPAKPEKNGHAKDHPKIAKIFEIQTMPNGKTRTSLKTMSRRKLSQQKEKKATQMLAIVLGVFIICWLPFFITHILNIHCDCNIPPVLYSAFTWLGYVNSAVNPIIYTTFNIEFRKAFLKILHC

5-HT2 receptor = conditions: reported in WO 2005/016900; cited from earlier work
α1 adrenoceptors = conditions: reported in WO 2005/016900; cited from earlier work

compatibility of the tablet excipients with the compound [3]: compatible
Structure (SMILES): CN1CCN([C@@H]2C[C@@H](c3ccccc3)c3ccc(Cl)cc32)CC1(C)C [compound of formula I, 4-((1R,3S)-6-chloro-3-phenylindan-1-yl)-1,2,2-trimethylpiperazine]
antipsychotic activity in CAR model [1]: possesses antipsychotic activity
cognition enhancing properties [2]: cognition enhancing properties
affinity for dopamine D1 receptors (antagonist) (dopamine D1 receptors): high affinity
affinity for dopamine D2 receptors (antagonist) (dopamine D2 receptors): high affinity
affinity for the 5-HT2 receptor (antagonist) (5-HT2 receptor): high affinity
affinity for α1 adrenoceptors (α1 adrenoceptors): high affinity
